# In patent US10836763B2, “5 to 7 membered heterocyclic amides as JAK inhibitors” (priority 2018, dated 2020):
# Assays:
# Lung S9 metabolism = type: in vitro ADME, human; conditions: for Compound Remaining at 60 min (%) / microsomal CLint at 1 µM: human lung S9, 1 μM compound, 1 mg/mL S9 protein, NADPH and PAPS; for microsomal CLint at 1 µM: lung S9 fraction, pH 7.4, read-out: Clearance; for Sulfate Appearance: qualitative, O-sulfate metabolite peak in human lung S9
# Protocol: Assay 5: Lung S9 Metabolism […] Lung S9 fractions from human (lot 1410245) were purchased from XenoTech LLC (Lenexa, Kans.). NADPH (Sigma Aldrich, N1630) and 3-phosphoadenosine 5-phosphosulfate (PAPS) (Sigma Aldrich, A1651) were purchased from Sigma Aldrich (St. Louis, Mo.). Acetonitrile and water were obtained from VWR (Radnor, Pa.) and were of HPLC grade or better. Raloxifene and formic acid was purchased from Sigma Aldrich (St. Louis, Mo.). Lung S9 incubations were performed in a water bath at 37° C. in a 96-well polypropylene plate. […] All samples were centrifuged at 2250 g for 10 minutes at 5° C. Supernatant (50 μL) was taken from the centrifuged samples and diluted into 100 μL HPLC water containing internal standard. […] Mobile Phase A consisted of Water+0.2% formic acid and Mobile Phase B consisted of acetonitrile+0.2% formic acid. Peak integration was accomplished using Gubbs GMSU software (Gubbs Inc., Alpharetta, Ga.). For each sample, peak area ratios were calculated by dividing the analyte peak area by the internal standard peak area. […] Determination of sulfate metabolite formation was made qualitatively by observation of early-eluting peak in the parent ion channel which, based on historical internal data, corresponded to the O-sulfate metabolite of each parent compound.
# Tyk2 = Tyk2 (Homo sapiens (Human), UniProt P29597); assay: Biochemical JAK kinase assay (LanthaScreen), Tyk2; conditions: ATP at Km 10 μM; pIC50 converted with Cheng-Prusoff
# Chain of Tyk2 (P29597 whole entry): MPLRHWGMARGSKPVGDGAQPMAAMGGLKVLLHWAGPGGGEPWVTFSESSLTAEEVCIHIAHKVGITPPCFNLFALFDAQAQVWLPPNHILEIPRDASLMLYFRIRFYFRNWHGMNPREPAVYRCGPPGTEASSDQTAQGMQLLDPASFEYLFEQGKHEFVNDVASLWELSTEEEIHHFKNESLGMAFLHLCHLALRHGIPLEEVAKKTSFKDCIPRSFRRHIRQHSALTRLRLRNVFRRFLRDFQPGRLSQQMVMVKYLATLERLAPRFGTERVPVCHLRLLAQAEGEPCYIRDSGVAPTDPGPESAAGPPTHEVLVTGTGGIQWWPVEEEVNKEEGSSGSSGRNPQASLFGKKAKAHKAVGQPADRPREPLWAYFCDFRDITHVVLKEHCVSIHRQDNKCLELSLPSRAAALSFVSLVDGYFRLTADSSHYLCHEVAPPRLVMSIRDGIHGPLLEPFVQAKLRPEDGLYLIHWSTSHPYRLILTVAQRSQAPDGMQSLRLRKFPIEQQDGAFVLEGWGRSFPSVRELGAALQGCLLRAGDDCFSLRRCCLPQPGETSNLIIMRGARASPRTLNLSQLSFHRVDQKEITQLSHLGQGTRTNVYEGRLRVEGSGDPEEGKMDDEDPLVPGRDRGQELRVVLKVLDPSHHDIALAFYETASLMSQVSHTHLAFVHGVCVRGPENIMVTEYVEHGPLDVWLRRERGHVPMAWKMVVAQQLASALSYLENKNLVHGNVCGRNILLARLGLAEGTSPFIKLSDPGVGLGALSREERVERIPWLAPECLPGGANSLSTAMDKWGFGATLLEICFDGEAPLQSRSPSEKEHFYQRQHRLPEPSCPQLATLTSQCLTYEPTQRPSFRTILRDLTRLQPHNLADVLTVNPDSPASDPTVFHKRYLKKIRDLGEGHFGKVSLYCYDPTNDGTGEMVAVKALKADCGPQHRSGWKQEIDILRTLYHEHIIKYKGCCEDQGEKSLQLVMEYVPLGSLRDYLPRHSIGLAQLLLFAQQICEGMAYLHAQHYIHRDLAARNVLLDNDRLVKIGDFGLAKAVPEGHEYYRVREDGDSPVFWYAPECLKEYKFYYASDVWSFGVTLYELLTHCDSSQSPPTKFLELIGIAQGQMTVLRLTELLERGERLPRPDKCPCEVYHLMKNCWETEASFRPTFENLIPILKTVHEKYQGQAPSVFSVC
# Protocol: Assay 1: Biochemical JAK Kinase Assays
# A panel of four LanthaScreen JAK biochemical assays (JAK1, 2, 3 and Tyk2) were carried in a common kinase reaction buffer (50 mM HEPES, pH 7.5, 0.01% Brij-35, 10 mM MgCl2, and 1 mM EGTA). Recombinant GST-tagged JAK enzymes and a GFP-tagged STAT1 peptide substrate were obtained from Life Technologies.
# Serially diluted compounds were pre-incubated with each of the four JAK enzymes and the substrate in white 384-well microplates (Corning) at ambient temperature for 1 h. ATP was subsequently added to initiate the kinase reactions in 10 μL total volume, with 1% DMSO. […] Kinase reactions were allowed to proceed for 1 hour at ambient temperature before a 10 μL preparation of EDTA (10 mM final concentration) and Tb-anti-pSTAT1 (pTyr701) antibody (Life Technologies, 2 nM final concentration) in TR-FRET dilution buffer (Life Technologies) was added. The plates were allowed to incubate at ambient temperature for 1 h before being read on the EnVision reader (Perkin Elmer). Emission ratio signals (520 nm/495 nm) were recorded and utilized to calculate the percent inhibition values based on DMSO and background controls.
# For dose-response analysis, percent inhibition data were plotted vs. compound concentrations, and IC50 values were determined from a 4-parameter robust fit model with the Prism software (GraphPad Software). Results were expressed as pIC50 (negative logarithm of IC50) and subsequently converted to pKi (negative logarithm of dissociation constant, Ki) using the Cheng-Prusoff equation.
# [1] = system: TSLP-evoked TARC release in human peripheral blood mononuclear cells; assay: Inhibition of TSLP-evoked TARC release in human peripheral blood mononuclear cells; type: cell-based; conditions: PBMC from 3 to 5 donors, TSLP 10 ng/mL, 48 hours, TARC ELISA, read-out: pIC50 ± st. dev., inhibition of TSLP-evoked TARC release (converted)
# Description: Assay 4: Inhibition of TSLP-Evoked TARC Release in Human Peripheral Blood Mononuclear Cells
# Thymic stromal lymphopoietin (TSLP) and thymus and activation-regulated chemokine (TARC) are overexpressed in asthmatic airways, and correlate with disease severity. In the lungs, TSLP may be released by bronchial epithelial cells in response to allergens and viral infections. TSLP signals through an IL-7Rα/TSLPR heterodimer found in a broad range of tissues and cell types, including epithelial cells, endothelial cells, neutrophils, macrophages, and mast cells. The binding of TSLP to its receptor induces a conformational change that activates JAK1 and JAK2 to phosphorylate various transcription factors, including STAT3 and STAT5. In immune cells, this triggers a cascade of intracellular events that result in cell proliferation, anti-apoptosis, dendritic cell migration, and production of Th2 cytokines and chemokines. In peripheral blood mononuclear cells (PBMC), TSLP has a proinflammatory effect by activating myeloid dendritic cells to attract and stimulate T cells, a process mediated by the chemoattractant TARC.
# The potencies of the test compounds were measured for inhibition of TARC release.
# PBMC aliquots (previously isolated from whole blood and frozen in aliquots at −80° C.) from 3 to 5 donors were thawed at 37° C. and added dropwise to 40 mL pre-warmed, sterile-filtered, complete RPMI media in 50 mL Falcon tubes. Cells were pelleted and resuspended in complete media at 2.24×10^6 cells/mL. Cells were seeded at […] (190,000 cells) per well in a tissue culture treated 96-well flat bottom microplate. Cells were allowed to rest for 1 hour at 37° C. with 5% CO2.
# Compounds were received as 10 mM stock solutions in DMSO. 3.7-fold serial dilutions were performed to generate 9 concentrations of test compound in DMSO at 300× the final assay test concentration. […] After the 1 hour rest period, 95 µL of 2× compound was added to each well of PBMC, for a final assay concentration range of 33.33 μM to […]. 95 μL of 0.2% DMSO in complete media was added to the untreated control wells. Cells were pre-treated with compound for 1 hour at 37° C. with 5% CO2 prior to stimulation.
# Recombinant human TSLP protein was reconstituted at 10 μg/mL in sterile DPBS with 0.1% BSA and stored in aliquots at −20° C. Immediately prior to use, an aliquot was thawed and prepared at 20× the final assay concentration in complete media. 10 μL of 20×TSLP was added to each well of PBMC, for a final assay concentration of 10 ng/mL. 10 μL of complete media was added to the unstimulated control wells. Cells were stimulated in the presence of compound for 48 hours at 37° C. with 5% CO2.
# Following stimulation, the cell culture supernatants were harvested and TARC levels were detected by enzyme-linked immunosorbent assay (ELISA), using Human CCL17/TARC Quantikine ELISA Kit (R&D Systems # DDN00) according to the manufacturer's instructions.
# For dose response analysis, the log [test compound (M)] was plotted versus the percent response values for each donor, and IC50 values were determined using a nonlinear regression analysis with GraphPad Prism Software using the 4-parameter sigmoidal dose-response algorithm with variable slope. Data are expressed as mean pIC50 (negative decadic logarithm IC50) values calculated from pIC50 values of individual donors and rounded to one decimal place.
Compound,Compound Remaining at 60 min (%) (Lung S9 metabolism),microsomal CLint at 1 µM (Lung S9 metabolism),Sulfate Appearance (Lung S9 metabolism),Tyk2 pKi (Tyk2),IC50 [1]
"CCc1cc(O)c(F)cc1-c1ccc2c(-c3nc4c([nH]3)CN(C(C)C)[C@H](C(=O)N3CCCN(C)CC3)C4)n[nH]c2c1 [Compound C-4, (S)-(2-(6-(2-ethyl-5-fluoro-4-hydroxyphenyl)-1H-indazol-3-yl)-5-isopropyl-4,5,6,7-tetrahydro-3H-imidazo[4,5-c]pyridin-6-yl)(4-methyl-1,4-diazepan-1-yl)methanone, reference compound]",4%,53.4 µL/min/mg,Yes,9.3,100 nM
"CCc1cc(O)c(F)cc1-c1ccc2c(-c3nc4c([nH]3)CN(C)[C@H](C(=O)N3CCN(CCO)C[C@H]3C)C4)n[nH]c2c1 [Compound C-5, ((S)-2-(6-(2-ethyl-5-fluoro-4-hydroxyphenyl)-1H-indazol-3-yl)-5-methyl-4,5,6,7-tetrahydro-3H-imidazo[4,5-c]pyridin-6-yl)((R)-4-(2-hydroxyethyl)-2-methyl-piperazin-1-yl)methanone, reference compound]",8%,42.2 µL/min/mg,Yes,9.5,50.1 nM
